Patent US9611248B2, “Chemical compounds” (Syngenta Participations AG, priority 2013, dated 2017)

The compounds below were run on a variety of test species (assay: Post-emergence herbicidal activity). Conditions: rate 1000 g/ha, evaluated after 13 days.
Format: in vivo
Set-up: key to ABUTH (Abutilon theophrasti) damage score / AMARE (Amaranthus retroflexus) damage score / ALOMY (Alopecurus myosuroides) damage score / ECHCG (Echinochloa crus-galli) damage score / ZEAMX (Zea mays) damage score / SOLNI (Solanum nigrum) damage score: 0 = no damage to plant, 5 = total damage to plant
Outline: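 Damage on a 0–5 scale (5 = plant killed) was rated 13 days after treatment. Test species had been sown in standard soil and raised 8 days under glasshouse conditions of 24/16 °C, 14 h light, 65% humidity. They were then sprayed with aqueous solution from an acetone/water 50:50 formulation containing 0.5% Tween 20.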

| Structure (SMILES) | ABUTH (Abutilon theophrasti) damage score | ALOMY (Alopecurus myosuroides) damage score | AMARE (Amaranthus retroflexus) damage score | ECHCG (Echinochloa crus-galli) damage score | SETFA (Setaria faberi) damage score | ZEAMX (Zea mays) damage score |
| --- | --- | --- | --- | --- | --- | --- |
| COC1=C(C)C(=O)N(c2cc(C(C)(C)C)c(OC)nn2)C1O (stereo not drawn) [BD10] | 5 | 5 | 5 | 5 | 5 | 4 |
| COC1=C(C)C(=O)N(c2cc(C)c(Cl)nn2)C1O (stereo not drawn) [BD11] | 4 | 2 | 2 | 1 | 2 | 0 |
| COC1=C(C)C(=O)N(c2cc(C(C)(C)C)c(N3CC(F)(F)C3)nn2)C1O (stereo not drawn) [BD12] | 5 | 4 | 5 | 5 | 5 | 2 |
| COC1=C(C)C(=O)N(c2ccc(C(=O)NC(C)(C)C)nn2)C1O (stereo not drawn) [BD13] | 5 | 5 | 5 | 5 | 5 | 4 |
| COC1=C(C)C(=O)N(c2cc(C(C)(C)C)c(-c3cccc(C#N)c3)nn2)C1O (stereo not drawn) [BD14] | 4 | 4 | 5 | 3 | 4 | 1 |
| CC1=C(Cl)C(O)N(c2cc(C(C)(C)C)ncn2)C1=O (stereo not drawn) [CA1] | 1 | 1 | 3 | 1 | 2 | 1 |
| CC1=C(Cl)C(O)N(c2cc(C(F)(F)F)ncn2)C1=O (stereo not drawn) [CA2] | 0 | 1 | 0 | 0 | 0 | 0 |
| CCC1=C(Cl)C(O)N(c2cc(C(C)(C)C#N)ncn2)C1=O (stereo not drawn) [CA3] | 1 | 0 | 1 | 0 | 0 | 0 |
| CCCC1=C(Cl)C(O)N(c2cc(C(C)(C)C#N)ncn2)C1=O (stereo not drawn) [CA4] | 2 | 1 | 1 | 0 | 1 | 1 |
| CC1=C(Br)C(O)N(c2cc(C(F)(F)F)ncn2)C1=O (stereo not drawn) [CB1] | 1 | 1 | 1 | 1 | 0 | 1 |
| COC1=C(C)C(=O)N(c2cc(N3CCCCC3)ncn2)C1O (stereo not drawn) [CD1, 2-hydroxy-3-methoxy-4-methyl-1-[6-(1-piperidyl)pyrimidin-4-yl]-2H-pyrrol-5-one] | 0 | 0 | 0 | 0 | 0 | 0 |
